Experiments:
human FPRL1 = target: T1, human FPRL1 (Homo sapiens, UniProt P25090); test: Measurement test of agonist activity on human FPRL1 (test of calcium mobilization in HEK293 cells transfected with human FPRL1 and Gα15); format: cell-based; settings: read-out: Efficacy EC50
T1 construct: expressed in transfected cells; host or cells: HEK293 (JCRB9068, NIBIO), transient co-transfection of pCMV-script vectors with Lipofectamine 2000
T1 sequence (P25090 1-351): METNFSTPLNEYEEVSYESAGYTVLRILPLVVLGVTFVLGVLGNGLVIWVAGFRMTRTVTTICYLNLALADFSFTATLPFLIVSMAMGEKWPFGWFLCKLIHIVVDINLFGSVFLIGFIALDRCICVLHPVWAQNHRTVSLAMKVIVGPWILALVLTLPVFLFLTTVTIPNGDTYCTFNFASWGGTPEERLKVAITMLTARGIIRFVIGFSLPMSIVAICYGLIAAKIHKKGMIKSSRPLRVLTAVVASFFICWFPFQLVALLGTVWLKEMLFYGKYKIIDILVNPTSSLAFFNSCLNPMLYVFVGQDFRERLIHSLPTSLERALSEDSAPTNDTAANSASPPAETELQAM
Description: Measurement Test of Agonist Activity on Human FPRL1
(1-1) Construction of Human FPRL1 Expression Vector
Human FPRL (SEQ ID NO: 3) was amplified in a PCR reaction from cDNA derived from a monocytic leukemia cell line THP-1 (TIB-202, ATCC) as a template using a forward primer shown in SEQ ID NO: 1, a reverse primer shown in SEQ ID NO: 2, and KOD-plus-ver. 2 (KOD-211, TOYOBO CO., LTD.). […] 2 (LGK-201, TOYOBO CO., LTD.). The ligation product was transformed into DH5α (DNA-901, TOYOBO CO., LTD.), cultured on a 100 μg/mL kanamycin-containing LB medium, and purified with HiSpeed Plasmid Maxi Kit (12662, QIAGEN).
(1-2) Construction of Human Gα15 Expression Vector
2. The amplified PCR product and pCMV-script vector were digested with Hind III and XhoI, and the resultant digest was ligated with Ligation high ver. 2. The ligation product was transformed into DH5α, cultured on a 100 μg/mL kanamycin-containing LB medium, and purified with HiSpeed Plasmid Maxi Kit.
(2-1) Method for Culturing and Subculturing HEK293
HEK293 (JCRB9068, NIBIO) was cultured in an incubator at 5% CO2 and 37° C. using DMEM (11885-092, GIBCO) containing 10% FBS and 1× Penicillin-Streptomycin (15140-122, GIBCO).
(2-2) Introduction of Human FPRL1 and Gα15 Expression Vectors
The cells were inoculated in a Collagen Type 1 coated 6-well plate (4810-010, IWAKI) to 5×10^5 cells/2.5 mL/well and cultured overnight. On the next day, human FPRL1 and Gα15 expression vectors were introduced using Lipofectamine 2000 transfection reagent (11668-019, Life technologies). First, the human FPRL1 and Gα15 expression vectors were diluted with Opti-MEM I Reduced Serum Medium (31985-070, GIBCO) to 2 μg/250 μL/well and Lipofectamine 2000 transfection reagent was diluted with Opti-MEM I Reduced Serum Medium to be 4 μL/250 μL/well. The vectors and reagent were softly diffused, and incubated at room temperature for 5 minutes. The vector solution was mixed with Lipofectamine 2000 transfection reagent in equal amounts. In order to form a complex of the vectors and Lipofectamine 2000 transfection reagent, the mixture was incubated at room temperature for 20 minutes, and added at 500 μL/well to the medium of inoculated cells. The treated cells were cultured for 24 hours, inoculated in Poly-D-Lysine coated 96-well plate (356640, BD Biosciences) at a cell density of 7×10^4 cells/100 μL/well, and cultured for another 24 hours. The resultant cells were used in a measurement test of calcium mobilization in the cells.
(3) Evaluation of Agonist Activity on Human FPRL1 (Test of Calcium Mobilization in Cell)
An appropriate amount of each test compound was first weighed, and dissolved to 10^−2 M by addition of dimethyl sulfoxide (DMSO). […] The plate dispensed with compound solutions was set in Flexstation (Molecular Devices, LLC.) until measurement.
Subsequently, 10 mL of assay buffer and 100 μL of probenecid solution (dissolved by addition of 1 mL of assay buffer to a 250 mM stock) were sufficiently mixed and dissolved in Fluo-4 NW dye mix. The medium of cells inoculated on the previous day was removed, the dissolved Fluo-4 NW dye mix was added in an amount of 90 μL/well, and a reaction was caused in the dark at 37° C. for 45 minutes. The cells after the reaction and chips for addition of the compound were set in Flexstation, and variation in fluorescence intensity over time after addition of the compound was measured [amount of added compound=10 μL (final concentration 10^−5 M to 10^−12 M), excitation wavelength: 485 nm, measured wavelength: 525 nm, 1.5 sec×54 read]. A value was calculated by subtracting a base value during addition of DMSO from the maximum value of relative fluorescence unit, and analyzed. All the measurement data were analyzed with Prism 4 that was a data analysis tool.

[1] = system: neutrophilic infiltration in mouse lung; test: Effect on lipopolysaccharide-induced neutrophilic infiltration in mouse lung (BAL fluid neutrophil count); format: in vivo; settings: oral, 30 minutes before LPS aerosol, BAL fluid neutrophils after 5 hours, mouse (BALB/c, male)
Procedure: Effect of Lipopolysaccharide Induction on Neutrophilic Infiltration in Mouse Lung
A compound to be tested was orally administrated to a mouse (BALB/c, male), and after 30 minutes, the mouse was placed in a plastic container. Lipopolysaccharide (0.3 mg/mL) dissolved in physiological saline was aerosolized with an ultrasonic wave nebulizer (NE-U17, OMRON Corporation), and exposed to the mouse for 10 minutes. After 5 hours, the anesthetized mouse was sacrificed by exsanguination. A cannula was inserted in the respiratory tract and bronchoalveolar lavage (BAL) with 1 mL of […] liquid containing 0.4% sodium citrate was carried out. This operation was repeated 3 times, to obtain a BAL fluid. The BAL fluid was centrifuged at 4° C. and ×200 g for 5 minutes, and the pellet was suspended in a physiological saline containing 0.1% BSA. The number of white blood cells was counted using Turks solution with a microscope, and the total white blood cell count was calculated. The white blood cells were fixed on a glass slide using Cytospin 3 (Thermo BioAnalysis Japan K. K.). The cells were stained with Diff-Quik (SYSMEX INTERNATIONAL REAGENTS CO., LTD.), and the number thereof was counted with a microscope, and the neutrophil ratio was calculated. The neutrophil ratio was multiplied by the total white blood cell count to calculate the total neutrophil count. An effect of the compound to be tested represents a percentage (%) of suppression ratio relative to the neutrophil count in a control.

Compound	EC50 (human FPRL1) [nM]	also measured
COc1ccc(CC(CO)NC(=O)Nc2ccc(Br)cc2)cc1 (centres unmarked) [Example 31-25, 1-(4-bromo-phenyl)-3-(1-hydroxy-3-(4-methoxyphenyl)-propan-2-yl)urea]	8.45	
CCc1ccc(C[C@H](NC(=O)Nc2ccc(Cl)cc2)/C(N)=N/OCCO)cc1 [Example 19-1, (+)-(S,Z)-2-[3-(4-Chlorophenyl)ureido]-3-(4-ethylphenyl)-N′-(2-hydroxyethoxy)propanimidamide]	0.56	Suppression Ratio (%) ([1]; dose 3 mg/kg): 96.9%
N#Cc1ccc(C[C@H](NC(=O)Nc2ccc(Cl)cc2)c2nnn(CCO)n2)cc1 [Example 1-5, (S)-1-(4-chlorophenyl)-3-{2-(4-cyanophenyl)-1-[2-(2-hydroxyethyl)-2H-tetrazol-5-yl]ethyl}urea]	0.57	
COc1ccc(C[C@H](NC(=O)Nc2ccc(Cl)cc2)c2ocnc2C(=O)N(C)C)cc1 [Example 14-4, (S)-5-(1-(3-(4-chlorophenyl)ureido)-2-(4-methoxyphenyl)-ethyl)-N,N-dimethyloxazole-4-carboxamide]	0.3	
CCc1ccc(C[C@H](NC(=O)Nc2ccc(Cl)cc2)c2nnc(CCO)o2)cc1 [Example 1-73, (−)-(S)-1-(4-chlorophenyl)-3-(2-(4-ethylphenyl)-1-(5-(3-hydroxyethyl)-1,3,4-oxadiazol-2-yl)ethyl)urea]	0.73	
O=C(Nc1ccc(F)cc1)N[C@@H](Cc1ccc(Cl)cc1)c1nnn(CCO)n1 [Example 1-8, (−)-(S)-1-{2-(4-chlorophenyl)-1-[2-(2-hydroxyethyl)-2H-tetrazol-5-yl]ethyl}-3-(4-fluorophenyl)urea]	1.37	
N/C(=N\C(=O)CCO)[C@H](Cc1ccc(Cl)cc1)NC(=O)Nc1ccc(Cl)cc1 [Example 26-5 (B), (S)-N-{3-(4-chlorophenyl)-2-[3-(4-chloro-phenyl)ureido]-1-iminopropyl}-3-hydroxypropan-amide]	0.66	Suppression Ratio (%) ([1]; dose 3 mg/kg): 86%
COc1ccc(C[C@H](CO)NC(=O)Nc2ccc(Cl)cc2)cc1 [Example 31-29]	4.12	Suppression Ratio (%) ([1]; dose 10 mg/kg): 95.5%
COc1ccc(C[C@H](NC(=O)Nc2ccc(Cl)cc2)/C(N)=N/C(=O)CCO)cc1 [Example 26-2, (S)-N-{2-[3-(4-chlorophenyl)-ureido]-1-imino-3-(4-methoxy-phenyl)propyl}-3-hydroxypropanamide]	0.15	
CNC(=O)c1ncoc1[C@H](Cc1ccc(OC)cc1)NC(=O)Nc1ccc(Cl)cc1 [Example 14-3, (S)-5-(1-(3-(4-chlorophenyl)ureido)-2-(4-methoxyphenyl)ethyl)-N-methyl-oxazole-4-carboxamide]	0.22	
COc1ccc(C[C@H](NC(=O)Nc2ccc(Cl)cc2)c2nnc(CCO)o2)cc1 [Example 1-20, (S)-1-(4-chlorophenyl)-3-{1-[5-(2-hydroxyethyl)-1,3,4-oxadiazol-2-yl]-2-(4-methoxyphenyl)ethyl}urea]	0.17	Suppression Ratio (%) ([1]; dose 3 mg/kg): 94%
CCc1ccc(C[C@H](NC(=O)Nc2ccc(Cl)cc2)c2nnn(CCO)n2)cc1 [Example 1-11, (S)-1-(4-chlorophenyl)-3-{2-(4-ethylphenyl)-1-[2-(2-hydroxyethyl)-2H-tetrazol-5-yl]ethyl}urea]	0.22	
COc1ccc(CC(NC(=O)Nc2ccc(Cl)cc2)/C(N)=N/C(=O)CO)cc1 (centres unmarked) [Example 26-11, N-{2-[3-(4-chlorophenyl)-ureido]-1-imino-3-(4-methoxy-phenyl)propyl}-2-hydroxyacetamide]	0.41	
CN(CCO)c1nc([C@H](Cc2ccc(Cl)cc2)NC(=O)Nc2ccc(Cl)cc2)no1 [Example 18-11, (S)-1-(4-chloro-phenyl)-3-(2-(4-chlorophenyl)-1-(5-((2-hydroxy-ethyl)(methyl)-amino)-1,2,4-oxadiazol-3-yl)ethyl)urea]	0.3	
COc1ccc(CC(NC(=O)Nc2ccc(Cl)cc2)/C(N)=N/O)cc1 (centres unmarked) [Example 4]	0.34	
O=C(Nc1ccc(Cl)cc1)N[C@@H](Cc1ccc(Cl)cc1)c1nnn(CCO)n1 [Example 1-7, (−)-(S)-1-(4-chlorophenyl)-3-{2-(4-chlorophenyl)-1-[2-(2-hydroxyethyl)-2H-tetrazol-5-yl]ethyl}urea]	2.7	
N/C(=N\OCCO)[C@H](Cc1ccc(Cl)cc1)NC(=O)Nc1ccc(Cl)cc1 [Example 22-2, (+)-(S,Z)-3-(4-chlorophenyl)-2-(3-(4-chloro-phenyl)ureido)-N′-(2-hydroxy-ethoxy)propan-imidamide]	0.2	
COc1ccc(CC(Cc2nnc(O)o2)NC(=O)Nc2ccc(Cl)cc2)cc1 (centres unmarked) [Example 1-75, 1-(4-chlorophenyl)-3-(1-(5-hydroxy-1,3,4-oxadiazol-2-yl)-3-(4-methoxyphenyl)propan-2-yl)urea]	1.41	
COc1ccc(C[C@H](NC(=O)Nc2ccc(Cl)cc2)c2nnn(CCO)n2)cc1 [Example 1-1, (−)-(S)-1-(4-Chlorophenyl)-3-{1-[2-(2-hydroxyethyl)-2H-tetrazol-5-yl]-2-(4-methoxyphenyl)ethyl}urea]	0.25	Suppression Ratio (%) ([1]; dose 1 mg/kg): 95.7%
CCc1ccc(C[C@H](NC(=O)Nc2ccc(Cl)cc2)c2noc(N(C)CCO)n2)cc1 [Example 1-15, (S)-1-(4-chlorophenyl)-3-(2-(4-ethylphenyl)-1-{5-[(2-hydroxyethyl)(methyl)amino]-1,2,4-oxadiazol-3-yl}ethyl)urea]	0.63	Suppression Ratio (%) ([1]; dose 3 mg/kg): 95.7%

Source: patent US10858314B2, “Urea derivative or pharmacologically acceptable salt thereof” (KYORIN PHARMACEUTICAL CO., LTD., priority 2015, dated 2020)
